Experimental data: patent US8853490B2 (priority 2010, dated 2014)
Read-outs that look alike come from different tables or passages of the source.

What was measured:
[1] = test system: Diplodia maydis (DMA; isolate Warren-IN-96); type: cell-based
[2] = test system: Colletotrichum graminicola (CGR; isolate Carroll-IA-99); type: cell-based

Substance	In vitro antifungal activity (IC50) against D. maydis (DMA) ([1]; high salt conditions) [ppm]	In vitro antifungal activity (IC50) against D. maydis (DMA) ([1]; low salt conditions) [ppm]	In vitro antifungal activity (IC50) against C. graminicola (CGR) ([2]; high salt conditions) [ppm]	In vitro antifungal activity (IC50) against C. graminicola (CGR) ([2]; low salt conditions) [ppm]
LB-5220 (ps 1B4): LBNL variant generated through gene shuffling of the LB-5220 mature peptide coding sequence (LKYTGTCTRKNNQCKYRGQNNRDTFVKCPTFANKRCTRDGAPCSFDSYSRAVTCD; Synthetic peptide LB-5220 (ps-1B4))	12	0.1		
LB-5220 (r2 5G7): LBNL variant generated through gene shuffling of the LB-5220 mature peptide coding sequence (LKYTGTCRRANNQCKYKGQNNRDTFVKCPTFANKKCTRDGAKCSFDSYSRAVTCD; Synthetic peptide LB-5220 (r2-5G7))	12	0.1	6	
LB-5220 (r2 6F2): LBNL variant generated through gene shuffling of the LB-5220 mature peptide coding sequence (LKYTGTCRRANNQCKYKGQNNRDTFVKCPTFANKKCTRDGEKCSFDSYSRAVTCD; LB-5220 (r2-6F2))	6	0.1	12	0.4
LB-9827-3A-11E4: LBNL variant generated through gene shuffling of the LB-9827-1 mature peptide coding sequence (LSKYGGECSRKHNTCTYKKGGKNQIVNCPTAANKRCKTDRHHCEYDEYHRRVDCQTPV; LB-9827-3A-11E4)	0.94		1.25	
LB-9827-3B-21E10: LBNL variant generated through gene shuffling of the LB-9827-1 mature peptide coding sequence (LSKYGGECSRAHNTCTYRKGGKNQVVNCPSAANKKCKSDRHHCEYDEYHKRVDCQTPV; Synthetic peptide LB-9827-3B-21E10)	30		1.25	
LB-9827-3B-25F2: LBNL variant generated through gene shuffling of the LB-9827-1 mature peptide coding sequence (LSKYGGECSREHNTCTYLKGGKNQVVACGSAANKKCKRDRHHCEYDDYHKTVDCQTPV; Synthetic peptide LB-9827-3B-25F2)	7.5		1.25	
LB-9827-3B-25G5: LBNL variant generated through gene shuffling of the LB-9827-1 mature peptide coding sequence (LSKYGGECSRAHNTCTYRKGGKNQVVKCGTAANKKCKSDRHHCEYDDYHKRVDCQTPV; Synthetic peptide LB-9827-3B-25G5)	0.47		1.25	
LB-9827-3B-26G11: LBNL variant generated through gene shuffling of the LB-9827-1 mature peptide coding sequence (LSKYGGECSKEHNTCKYLKGGKNQVVACPKAANKKCKTDRHHCEYDEYHKTVDCQTPV; Synthetic peptide LB-9827-3B-26G11)			0.63	
